# Results as given in patent publication US20250127732A1 (AXSOME THERAPEUTICS, INC., priority 2018, published 2025).
# Tests used:
# [1] = Part 3: randomized, double-blind, placebo-controlled multiple-dose trial of S- and R-bupropion with pharmacokinetic sampling (plasma concentrations Day 7); assay type: in vivo; conditions: human, 105 mg BID SR tablets oral, fasting, Day 7 at 3-4 hours after dosing, n = 15
# Procedure: A randomized, double-blind, multiple-dose, placebo-controlled, parallel group trial was conducted to examine the safety and tolerability of the pure S-and R-enantiomers of bupropion, with pharmacokinetic sampling.
# clinical = conditions: human, in vivo, po, 105 mg
# Description: Tablet dosing was escalated from once daily for Days 1 to 3, to twice daily thereafter with a final morning dose on Day 8.
SMILES,Mean concentration of bupropion [1] [ng/mL],AUC(0-t) at 12 h (clinical) [ng·h/mL]
"C[C@@H](NC(C)(C)C)C(=O)c1cccc(Cl)c1 [R-bupropion, (R)-bupropion, reference compound]",15.1,
"C[C@H](NC(C)(C)C)C(=O)c1cccc(Cl)c1 [S-bupropion, (S)-bupropion]",170.9,793
